# Reference: patent US20240246980A1, “MODULATORS OF MAS-RELATED G-PROTEIN RECEPTOR D AND RELATED PRODUCTS AND METHODS” (Escient Pharmaceuticals, Inc., priority 2022, published 2024)
# Biological target: human MRGPRD (Homo sapiens, UniProt Q8TDS7)
# Assay: MRGPRD antagonist activity, IP-One HTRF assay in CHO cells stably expressing human MRGPRD (versus 100 μM β-Alanine agonist)
# Type: cell-based
# Experimental: Chinese Hamster Ovary (CHO) cells stably expressing human MRGPRD (Eurofins, San Diego CA) were plated in a 384-well plate at 20,000 cells per well in 12 μL of Optimem (Fisher Scientific 11-058-021). Plates were kept in the incubator at 37° C. overnight. Antagonists were solubilized at a concentration of 10 mM in DMSO, and the agonists were solubilized to stock concentrations of either 50 mM in H2O (β-Alanine) or 10 mM in DMSO (all others) and then diluted in assay buffer (final concentrations of 5.7 mM Tris-HCl, 43 mM NaCl, 50 mM LiCl, pH=8). The concentration of DMSO was normalized across the plate. Antagonists were added to the plate using a Tecan D300 Digital Dispenser at nanoliter/picoliter volumes and 2 μL of agonists in assay buffer were added to each well for a final assay volume of 14 μL. Plates were covered and incubated for 1 h at 37° C. and then for 1 h at room temperature. IP-1 standards and HTRF detection reagents were added according to an IP-One-Gq Kit purchased from Cisbio (part number 62IPAPEJ) and incubated in the dark for 1 h at room temperature. Assay plates were read on either a Molecular Devices SpectraMax iD5 plate reader or a BMG ClarioStar plate reader. The HTRF ratio was calculated form the raw data and graphed using GraphPad Prism to calculate IC50 values. Data are expressed as average IC50 values and average percent antagonism calculated as a percent of the maximum efficacy response. For these studies, the variability of the data was assessed by determining the standard error of mean (SEM).
# The activity ranges are denoted as follows: “+++++” denotes antagonist activity <100 nM; “++++” denotes antagonist activity between 100 and 500 nM; “+++” denotes activity between 500 and 1000 nM; “++” denotes activity between 1000 and 3000 nM; and “+” denotes activity >3000 nM.
# Chain of human MRGPRD (Q8TDS7 whole entry): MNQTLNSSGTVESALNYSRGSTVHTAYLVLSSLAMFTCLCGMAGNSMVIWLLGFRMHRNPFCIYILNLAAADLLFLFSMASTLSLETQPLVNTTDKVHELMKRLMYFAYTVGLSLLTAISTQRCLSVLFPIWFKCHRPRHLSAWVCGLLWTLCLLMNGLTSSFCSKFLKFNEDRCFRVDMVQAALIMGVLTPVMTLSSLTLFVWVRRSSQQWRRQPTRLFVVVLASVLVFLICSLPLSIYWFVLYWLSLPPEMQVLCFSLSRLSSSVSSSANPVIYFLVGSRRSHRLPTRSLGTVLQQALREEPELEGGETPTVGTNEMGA
row,Compound,IC50
1,COc1cccc(-c2nc([C@@H]3CCCN(C(=O)Nc4ccc(F)cc4)C3)n3ccccc23)c1 [Compound 5-10],100 to 500 nM
2,COc1cccc(-c2nc([C@@H]3CCCN(C(=O)Nc4ccccc4F)C3)n3ccccc23)c1 [Compound 5-12],< 100 nM
3,CCOc1ccccc1NC(=O)N1CCC[C@@H](c2nc(-c3cccc(OC)c3)c3ccccn23)C1 [Compound 5-14],100 to 500 nM
4,COc1cccc(-c2nc([C@@H]3CCCN(C(=O)Nc4cccc(C(C)=O)c4)C3)n3ccccc23)c1 [Compound 5-15],< 100 nM
5,COc1cccc(-c2nc([C@@H]3CCCN(C(=O)Nc4ccc(-n5cccn5)cc4)C3)n3ccccc23)c1 [Compound 5-16],< 100 nM
6,COc1cccc(-c2nc([C@@H]3CCCN(C(=O)NCc4ccc(N(C)C)cc4)C3)n3ccccc23)c1 [Compound 5-17],< 100 nM
7,COc1cccc(-c2nc([C@@H]3CCCN(C(=O)Nc4cccc(C(=O)N(C)C)c4)C3)n3ccccc23)c1 [Compound 5-18],< 100 nM
8,COc1cccc(-c2nc(C3CCCN(C(=O)Nc4ccc(N(C)C)cc4)C3)n3ncccc23)c1 (stereo not drawn) [Compound 5-20],< 100 nM
9,COc1cccc(-c2nc([C@@H]3CCCN(C(=O)Nc4ccc(OC(F)(F)F)cc4)C3)n3ccccc23)c1 [Compound 5-21],500 to 1000 nM
10,COc1cccc(-c2nc([C@@H]3CCCN(C(=O)Nc4ccc(-c5ccccc5)cc4)C3)n3ccccc23)c1 [Compound 5-22],1000 to 3000 nM
11,COc1cccc(-c2nc([C@@H]3CCCN(C(=O)Nc4ccc(C(F)(F)F)cc4)C3)n3ccccc23)c1 [Compound 5-23],500 to 1000 nM
12,COc1cccc(-c2nc([C@@H]3CCCN(C(=O)Nc4ccc(C(C)=O)cc4)C3)n3ccccc23)c1 [Compound 5-24],< 100 nM
13,COc1cccc(-c2nc([C@@H]3CCCN(C(=O)Nc4ccc(C)cc4C)C3)n3ccccc23)c1 [Compound 5-25],< 100 nM
14,COc1cccc(-c2nc([C@@H]3CCCN(C(=O)Nc4ccc5c(c4)OCO5)C3)n3ccccc23)c1 [Compound 5-27],< 100 nM
15,COc1cccc(-c2nc([C@@H]3CCCN(C(=O)NCCc4nc(C)cs4)C3)n3ccccc23)c1 [Compound 5-30],100 to 500 nM
16,COc1cccc(-c2nc([C@@H]3CCCN(C(=O)Nc4ccccc4C(C)=O)C3)n3ccccc23)c1 [Compound 5-34],1000 to 3000 nM
17,COc1cccc(-c2nc([C@@H]3CCCN(C(=O)Nc4cccc5c4OCO5)C3)n3ccccc23)c1 [Compound 5-35],< 100 nM
18,COc1cccc(-c2nc([C@@H]3CCCN(C(=O)Nc4ccccc4N(C)C)C3)n3ccccc23)c1 [Compound 5-37],100 to 500 nM
19,COc1cccc(-c2nc([C@@H]3CCCN(C(=O)NC4CCc5ccccc5C4)C3)n3ccccc23)c1 (stereo partly drawn) [Compound 5-38],100 to 500 nM
20,COc1cccc(-c2nc([C@@H]3CCCN(C(=O)Nc4ccc5cccnc5c4)C3)n3ccccc23)c1 [Compound 5-40],< 100 nM
21,COCCNC(=O)N1CCC[C@@H](c2nc(-c3cccc(OC)c3)c3ccccn23)C1 [Compound 5-41],100 to 500 nM

row,Compound,IC50
1,COc1cccc(-c2nc([C@@H]3CCCN(C(=O)Nc4ccc5nc(C(C)(C)C)[nH]c5c4)C3)n3ccccc23)c1 [Compound 5-42],< 100 nM
2,COc1cccc(-c2nc([C@@H]3CCCN(C(=O)NC4CCCCC4)C3)n3ccccc23)c1 [Compound 5-43],100 to 500 nM
3,COc1cccc(-c2nc([C@@H]3CCCN(C(=O)Nc4ccn(C)n4)C3)n3ccccc23)c1 [Compound 5-44],< 100 nM
4,COc1cccc(-c2nc([C@@H]3CCCN(C(=O)NC4CCS(=O)(=O)CC4)C3)n3ccccc23)c1 [Compound 5-48],100 to 500 nM
5,CCOCn1cc(NC(=O)N2CCC[C@@H](c3nc(-c4cccc(OC)c4)c4ccccn34)C2)cn1 [Compound 5-49],< 100 nM
6,COc1cccc(-c2nc([C@@H]3CCCN(C(=O)Nc4onc(C)c4C)C3)n3ccccc23)c1 [Compound 5-50],< 100 nM
7,COc1cccc(-c2nc([C@@H]3CCCN(C(=O)Nc4ccc5c(c4)ncn5C)C3)n3ccccc23)c1 [Compound 5-51],< 100 nM
8,COc1cccc(-c2nc([C@@H]3CCCN(C(=O)NCCS(C)(=O)=O)C3)n3ccccc23)c1 [Compound 5-52],100 to 500 nM
9,CCc1csc(NC(=O)N2CCC[C@@H](c3nc(-c4cccc(OC)c4)c4ccccn34)C2)n1 [Compound 5-54],500 to 1000 nM
10,COc1cccc(-c2nc([C@@H]3CCCN(C(=O)NC4(c5ccccc5)CC4)C3)n3ccccc23)c1 [Compound 5-55],< 100 nM
11,COc1ccc(CNC(=O)N2CCC[C@@H](c3nc(-c4cccc(OC)c4)c4ccccn34)C2)cc1 [Compound 5-58],< 100 nM
12,COc1cccc(-c2nc([C@@H]3CCCN(C(=O)Nc4cc(C)nn4C)C3)n3ccccc23)c1 [Compound 5-59],< 100 nM
13,COc1cccc(-c2nc([C@@H]3CCCN(C(=O)NCc4ccccc4)C3)n3ccccc23)c1 [Compound 5-60],< 100 nM
14,COc1cccc(-c2nc([C@@H]3CCCN(C(=O)Nc4cnc5ccccn45)C3)n3ccccc23)c1 [Compound 5-62],< 100 nM
15,COc1cccc(-c2nc([C@@H]3CCCN(C(=O)Nc4ccc(CC#N)cc4)C3)n3ccccc23)c1 [Compound 5-63],< 100 nM
16,COc1cccc(-c2nc([C@@H]3CCCN(C(=O)Nc4ccc5ncsc5c4)C3)n3ccccc23)c1 [Compound 5-65],< 100 nM
17,COc1cccc(-c2nc([C@@H]3CCCN(C(=O)Nc4nocc4C)C3)n3ccccc23)c1 [Compound 5-66],< 100 nM
18,CCn1cc(CNC(=O)N2CCC[C@@H](c3nc(-c4cccc(OC)c4)c4ccccn34)C2)cn1 [Compound 5-68],< 100 nM
19,COc1cccc(-c2nc([C@@H]3CCCN(C(=O)N[C@H]4CC[C@H](O)CC4)C3)n3ccccc23)c1 [Compound 5-70],< 100 nM
20,COc1cccc(-c2nc([C@@H]3CCCN(C(=O)NC4CC(C)C4)C3)n3ccccc23)c1 (stereo partly drawn) [Compound 5-71],< 100 nM

# Other lines, results leading:
row,IC50,Compound
1,100 to 500 nM,COc1cccc(-c2nc([C@@H]3CCCN(C(=O)Nc4ccccc4OC)C3)n3ccccc23)c1 [Compound 5-11]
2,500 to 1000 nM,COc1cccc(-c2nc([C@@H]3CCCN(C(=O)Nc4ccccc4OC(F)(F)F)C3)n3ccccc23)c1 [Compound 5-13]
3,< 100 nM,COc1cccc(-c2nc(C3CCCN(C(=O)Nc4cccc(N(C)C)c4)C3)n3ncccc23)c1 (stereo not drawn) [Compound 5-19]
4,100 to 500 nM,COc1cccc(-c2nc([C@@H]3CCCN(C(=O)Nc4cccc5c4CCC5)C3)n3ccccc23)c1 [Compound 5-26]
5,< 100 nM,COc1cccc(-c2nc([C@@H]3CCCN(C(=O)Nc4ccccc4CO)C3)n3ccccc23)c1 [Compound 5-28]
6,100 to 500 nM,COc1cccc(-c2nc([C@@H]3CCCN(C(=O)Nc4cccc(CN(C)C)c4)C3)n3ccccc23)c1 [Compound 5-31]
7,100 to 500 nM,COc1cccc(-c2nc([C@@H]3CCCN(C(=O)Nc4ccc5c(c4)CCC5)C3)n3ccccc23)c1 [Compound 5-32]
8,1000 to 3000 nM,COc1cccc(-c2nc([C@@H]3CCCN(C(=O)Nc4ccccc4C(=O)N(C)C)C3)n3ccccc23)c1 [Compound 5-33]
9,100 to 500 nM,COc1cccc(-c2nc([C@@H]3CCCN(C(=O)Nc4cccc(N(C)C)c4)C3)n3ccccc23)c1 [Compound 5-36]
10,100 to 500 nM,COc1cccc(-c2nc([C@@H]3CCCN(C(=O)Nc4cccc5ccccc45)C3)n3ccccc23)c1 [Compound 5-39]
11,< 100 nM,COc1cccc(-c2nc([C@@H]3CCCN(C(=O)NCc4nccs4)C3)n3ccccc23)c1 [Compound 5-45]
12,500 to 1000 nM,COc1cccc(-c2nc([C@@H]3CCCN(C(=O)NCCN4CCCCC4)C3)n3ccccc23)c1 [Compound 5-46]
13,< 100 nM,COc1cccc(-c2nc([C@@H]3CCCN(C(=O)Nc4ccc5c(c4)CCC(C)(C)O5)C3)n3ccccc23)c1 [Compound 5-47]
14,< 100 nM,COc1cccc(-c2nc([C@@H]3CCCN(C(=O)Nc4ccc5c(c4)CN(C)C5)C3)n3ccccc23)c1 [Compound 5-53]
15,100 to 500 nM,COc1cccc(-c2nc([C@@H]3CCCN(C(=O)N[C@H]4CC[C@@H](O)CC4)C3)n3ccccc23)c1 [Compound 5-56]
16,< 100 nM,COc1cccc(-c2nc([C@@H]3CCCN(C(=O)Nc4ccc5c(c4)COCO5)C3)n3ccccc23)c1 [Compound 5-57]
17,< 100 nM,COc1cccc(-c2nc([C@@H]3CCCN(C(=O)Nc4cccc(-c5csc(C)n5)c4)C3)n3ccccc23)c1 [Compound 5-61]
18,500 to 1000 nM,COc1cccc(-c2nc([C@@H]3CCCN(C(=O)NC4CCN(C)CC4)C3)n3ccccc23)c1 [Compound 5-64]
19,< 100 nM,COc1cccc(-c2nc([C@@H]3CCCN(C(=O)Nc4nccs4)C3)n3ccccc23)c1 [Compound 5-67]
20,< 100 nM,COc1cccc(-c2nc([C@@H]3CCCN(C(=O)Nc4cc(C#N)on4)C3)n3ccccc23)c1 [Compound 5-69]
21,< 100 nM,COc1cccc(-c2nc([C@@H]3CCCN(C(=O)Nc4cnc(N(C)C)nc4)C3)n3ccccc23)c1 [Compound 5-72]
22,< 100 nM,COc1cccc(-c2nc([C@@H]3CCCN(C(=O)Nc4cnc(C)nc4)C3)n3ccccc23)c1 [Compound 5-73]
